We go through 2 molecules from patent US20130345418A1, “PROCESS FOR PURIFICATION OF APREPITANT” (HETERO DRUGS LIMITED, priority 2006, published 2013).

Like-named read-outs stand apart in the source and are kept apart here.

The nature of data set [1]: dissolution rate of amorphous versus crystalline aprepitant. The note with it: compared with the known crystalline aprepitant. It counts as physicochemical.
For data set [2] the following is noted: aprepitant produced by the processes described in the prior art; cited from earlier work.
Data set [3] is described as follows: mean particle size of aprepitant. It counts as physicochemical. The following applies: crystallized from ethyl acetate (Example 1).

In the case of `C[C@@H](O[C@H]1OCCN(Cc2n[nH]c(=O)[nH]2)[C@H]1c1ccc(F)cc1)c1cc(C(F)(F)F)cc(C(F)(F)F)c1` [amorphous aprepitant, 5-[[(2R,3S)-2-[(1R)-1-[3,5-bis(trifluoromethyl)phenyl]ethoxy]-3-(4-fluorophenyl)-4-morpholinyl]methyl]-1,2-dihydro-3H-1,2,4-triazol-3-one], the dissolution rate result in data set [1] is “better dissolution rate than the known crystalline aprepitant”.
Consider `C[C@@H](O[C@H]1OCCN(Cc2n[nH]c(=O)[nH]2)[C@H]1c1ccc(F)cc1)c1cc(C(F)(F)F)cc(C(F)(F)F)c1` [aprepitant, 5-[[(2R,3S)-2-[(1R)-1-[3,5-bis(trifluoromethyl)phenyl]ethoxy]-3-(4-fluorophenyl)-4-morpholinyl]methyl]-1,2-dihydro-3H-1,2,4-triazol-3-one], for which the values for the mean particle size entry in data set [2] and in data set [3] were “about 12 microns” and 4.95 microns, respectively.
